Experiment [1] deals with T1, PTP1B (Homo sapiens, UniProt P18031).
T1 sequence (P18031 1-435): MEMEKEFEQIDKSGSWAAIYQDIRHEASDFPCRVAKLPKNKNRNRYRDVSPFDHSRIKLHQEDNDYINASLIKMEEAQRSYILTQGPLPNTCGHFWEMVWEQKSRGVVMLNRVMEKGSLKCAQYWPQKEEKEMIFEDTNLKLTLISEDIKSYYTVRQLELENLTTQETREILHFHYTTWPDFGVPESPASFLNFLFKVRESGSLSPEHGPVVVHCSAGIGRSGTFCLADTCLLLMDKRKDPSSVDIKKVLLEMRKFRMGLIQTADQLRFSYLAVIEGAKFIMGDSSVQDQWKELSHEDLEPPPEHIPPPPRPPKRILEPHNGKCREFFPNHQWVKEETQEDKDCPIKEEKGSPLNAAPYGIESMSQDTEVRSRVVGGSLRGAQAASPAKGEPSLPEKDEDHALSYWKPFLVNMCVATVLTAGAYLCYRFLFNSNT
Briefly: PTP1B inhibition assay with p-nitrophenyl phosphate (pNPP) as substrate. Particulars: for % Inhibition (20 μM) on PTP1B: 20 μM compound, 2% DMSO; for inhibition at 20 µM: read-out: % Inhibition (20 μM) on PTP1B; for PTP1B inhibitory activity, in words: screened at 20 μM.

Experiment [2] has as its target T2, T-cell protein tyrosine phosphatase (TCPTP) (Homo sapiens, UniProt P17706).
T2 sequence (P17706 1-415): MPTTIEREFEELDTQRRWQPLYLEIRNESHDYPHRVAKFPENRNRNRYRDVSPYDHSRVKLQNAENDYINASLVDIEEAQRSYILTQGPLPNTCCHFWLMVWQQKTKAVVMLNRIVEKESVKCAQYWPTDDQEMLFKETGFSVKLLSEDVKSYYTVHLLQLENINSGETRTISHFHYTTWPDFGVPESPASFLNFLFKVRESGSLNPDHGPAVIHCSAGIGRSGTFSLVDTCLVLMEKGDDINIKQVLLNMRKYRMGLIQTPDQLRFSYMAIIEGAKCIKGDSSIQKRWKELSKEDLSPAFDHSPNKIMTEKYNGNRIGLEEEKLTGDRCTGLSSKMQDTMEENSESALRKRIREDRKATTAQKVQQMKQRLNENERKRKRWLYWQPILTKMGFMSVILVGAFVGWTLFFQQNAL
Kind of experiment: TCPTP inhibition assay (selectivity). The settings on record: for inhibition at 20 µM / % Inhibition (20 μM) on TCPTP: 20 μM compound, 2% DMSO. It counts as biochemical. The method, then: The selectivity of all the PTP1B inhibitory compounds was also evaluated against TCPTP.

[3] abbreviates: read-out: IC50 on PTP1B, pNPP substrate, dose-response run when inhibition >50% at 20 μM.

Like-named read-outs stand apart in the source and are kept apart here.

Regarding `NC(=NOC(=O)Cc1c[nH]c2ccccc12)c1ccccc1` [9a], the “% Inhibition (20 μM) on PTP1B” value in experiment [1] (pNPP substrate) was 7.3 ± 6.8%.
Still for that read-out and setting: the result for `NC(=NOC(=O)Cc1c[nH]c2ccccc12)c1ccc(F)cc1` [9b] reads 14.0 ± 4.3%.
On to `NC(=NOC(=O)Cc1c[nH]c2ccccc12)c1ccc(Cl)cc1` [9c], for which the “% Inhibition (20 μM) on PTP1B” value in experiment [1] (pNPP substrate) is 5.2 ± 1.8%.
On the same count and under the same terms, in the case of `NC(=NOC(=O)Cc1c[nH]c2ccccc12)c1ccc([N+](=O)[O-])cc1` [9d] it was 9.8 ± 7.1%.
The same measure, in the same setting: in the case of `CCc1ccc(C(N)=NOC(=O)Cc2c[nH]c3ccccc23)cc1` [9e] it was 23.4 ± 3.7%.
The same measure, in the same setting: the result for `c1ccc(-c2noc(Cc3c[nH]c4ccccc34)n2)cc1` [10a] reads 2.4 ± 1.2%; that for `Fc1ccc(-c2noc(Cc3c[nH]c4ccccc34)n2)cc1` [10b], 19.8 ± 0.1%.
Consider `Clc1ccc(-c2noc(Cc3c[nH]c4ccccc34)n2)cc1` [10c], for which the “% Inhibition (20 μM) on PTP1B” value in experiment [1] (pNPP substrate) was determined as 40.0 ± 7.6%.
Same read-out and setting: the result for `O=[N+]([O-])c1ccc(-c2noc(Cc3c[nH]c4ccccc34)n2)cc1` [10d] reads 44.5 ± 0.3%.
`CCc1ccc(-c2noc(Cc3c[nH]c4ccccc34)n2)cc1` [10e]: the inhibition at 20 µM in experiment [2] is 15.8%. In experiment [1], 16.8 µM corresponded to half-maximal inhibition (IC50) and the inhibition at 20 µM came out at 50.5 ± 1.1%.
Turning to `CCc1ccc(C(=O)ON=C(N)Cc2c[nH]c3ccccc23)cc1` [13a], in experiment [1] (setting [3]), the IC50 was above 20 µM.
On the same count and under the same terms, the result for `CCCCCCc1ccc(C(=O)ON=C(N)Cc2c[nH]c3ccccc23)cc1` [13c] reads above 20 µM.
Still for that read-out and setting: the result for `NC(Cc1c[nH]c2ccccc12)=NOC(=O)c1ccccc1F` [13d] reads above 20 µM; that for `NC(Cc1c[nH]c2ccccc12)=NOC(=O)c1ccc(C(F)(F)F)cc1` [13e], above 20 µM.
Same read-out and setting: the result for `COc1ccc(C(=O)ON=C(N)Cc2c[nH]c3ccccc23)cc1` [13f] reads above 20 µM; that for `COc1ccc(C(=O)ON=C(N)Cc2c[nH]c3ccccc23)c(Br)c1` [13g], above 20 µM; that for `CCCCC(=O)ON=C(N)Cc1c[nH]c2ccccc12` [13h], above 20 µM.
Regarding `NC(Cc1c[nH]c2ccccc12)=NOC(=O)CCCCBr` [13i], the half-inhibitory concentration (IC50) in experiment [1] (setting [3]) was above 20 µM.
The compound `CCc1ccc(-c2nc(Cc3c[nH]c4ccccc34)no2)cc1` [14a] gave an inhibition at 20 µM in experiment [2] of 9.22%. In experiment [1], this compound showed a half-maximal inhibitory concentration (IC50) of 13.5 ± 0.6 µM.
In the case of `CCCCc1ccc(-c2nc(Cc3c[nH]c4ccccc34)no2)cc1` [14b], the “% Inhibition (20 μM) on TCPTP” value in experiment [2] worked out at 50.31%. Also, the concentration for half-maximal inhibition (IC50) in experiment [1] (setting [3]) turned out to be 7.1 ± 0.1 µM.
The matching figures for `CCCCCCc1ccc(-c2nc(Cc3c[nH]c4ccccc34)no2)cc1` [14c]: 54.18% and 4.9 ± 0.8 µM.
`Fc1ccccc1-c1nc(Cc2c[nH]c3ccccc23)no1` [14d]: the IC50 in experiment [1] (setting [3]) was above 20 µM. The “PTP1B inhibitory activity, in words” value in experiment [1] is listed as “no activity”.
Regarding `FC(F)(F)c1ccc(-c2nc(Cc3c[nH]c4ccccc34)no2)cc1` [14e], in experiment [1] (setting [3]), the IC50 was above 20 µM.
On to `COc1ccc(-c2nc(Cc3c[nH]c4ccccc34)no2)cc1` [14f], for which the concentration for half-maximal inhibition (IC50) in experiment [1] (setting [3]) was above 20 µM. The “PTP1B inhibitory activity, in words” value in experiment [1] is “no activity”.
For `COc1ccc(-c2nc(Cc3c[nH]c4ccccc34)no2)c(Br)c1` [14g], in experiment [1] (setting [3]), the IC50 is above 20 µM.
Consider `CCCCc1nc(Cc2c[nH]c3ccccc23)no1` [14h], for which the half-maximal inhibitory concentration (IC50) in experiment [1] (setting [3]) was above 20 µM. Besides, the “PTP1B inhibitory activity, in words” value in experiment [1] was “disappearance of the inhibitory activity”.
The matching figures for `CC(=O)OCCCCc1nc(Cc2c[nH]c3ccccc23)no1` [14i]: above 20 µM and “disappearance of the inhibitory activity”.
As for `CC(C)c1nc(Cc2c[nH]c3ccccc23)no1` [14j], the IC50 in experiment [1] (setting [3]) is above 20 µM.
On the same count and under the same terms, the result for `ClC(Cl)c1nc(Cc2c[nH]c3ccccc23)no1` [14k] reads above 20 µM.
On to `c1ccc2c(Cc3noc(C4CCC4)n3)c[nH]c2c1` [14l], for which the “% Inhibition (20 μM) on TCPTP” value in experiment [2] was found to be 25.52%. The IC50 in experiment [1] (setting [3]) was 8.6 ± 1.5 µM.
Consider `c1ccc2c(Cc3noc(C4CCCC4)n3)c[nH]c2c1` [14m], for which the IC50 in experiment [1] (setting [3]) is above 20 µM. Also, in experiment [1], the “PTP1B inhibitory activity, in words” value is listed as “lack of activity”.
Regarding `c1ccc2c(Cc3noc(C4CCCCC4)n3)c[nH]c2c1` [14n], the “% Inhibition (20 μM) on TCPTP” value in experiment [2] was found to be 11.68%. The “TCPTP inhibitory activity, in words” value in experiment [2] (at the concentration of 20 μM) was “lowest inhibitory percentage”. Also, in experiment [1] (setting [3]), the 50% inhibitory concentration (IC50) came to 5.3 ± 0.7 µM.
As to `c1ccc(-c2nc(Cc3c[nH]c4ccccc34)no2)nc1` [14o], the IC50 in experiment [1] (setting [3]) was above 20 µM.
Same read-out and setting: the result for `Fc1ccc2[nH]cc(Cc3nc(Cc4c[nH]c5ccccc45)no3)c2c1` [14q] reads above 20 µM.
`Brc1ccc2[nH]cc(Cc3nc(Cc4c[nH]c5ccccc45)no3)c2c1` [14s]: the “% Inhibition (20 μM) on TCPTP” value in experiment [2] turned out to be 34.51%. The half-inhibitory concentration (IC50) in experiment [1] (setting [3]) was 7.4 ± 0.1 µM.
For the compound `Clc1cccc2[nH]cc(Cc3nc(Cc4c[nH]c5ccccc45)no3)c12` [14u], the “% Inhibition (20 μM) on TCPTP” value in experiment [2] is 38.74%. Further, in experiment [1] (setting [3]), the IC50 came to 9.7 ± 1.7 µM.
Take `N=C(N)NCCCCCNc1noc(Cc2c[nH]c3ccccc23)n1` [Phidianidine B (2), phidianidine B, reference compound]: the inhibition at 20 µM in experiment [1] came to 23.5 ± 2.6%.

The inhibition is how much of the control response was suppressed. In general, IC50 refers to the concentration that gives 50% inhibition.

Values taken from PMC5867641, “Function-Oriented Synthesis of Marine Phidianidine Derivatives as Potential PTP1B Inhibitors with Specific Selectivity” (Marine Drugs, 2018).
